Test results as given in PubChem BioAssay AID2060500 (Molecular Pharmacology Branch, DTP, NCI, 2025).
pIC50: −log10 of the molar value.

Test system: 596521-263-R-J1-PDC complex spheroids, viability % of control
Assay: Anticancer human tumor 596521-263-R-J1-PDC patient-derived soft tissue sarcoma cell line growth inhibition [GQUAD]
Conditions: for pIC50: curve of first compound; for viability, T/C: stronger effect = lower value
How it was run: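 Viability of tumor cells grown as complex spheroids with endothelial and stromal cells, exposed to drug combinations. Top concentration at or near clinical Cmax (else 10 microM), diluted in half-log increments.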

[1] = second compound 0.0316 µM, first compound 0.0316 µM
[2] = second compound 0.0316 µM, first compound 0.1 µM
[3] = second compound 0.0316 µM, first compound 0.316 µM
[4] = second compound 0.0316 µM, first compound 1 µM
[5] = second compound 0.0316 µM, first compound 3.16 µM
[6] = second compound 0.0316 µM, first compound 10 µM
[7] = second compound 0.1 µM, first compound 0.0316 µM
[8] = second compound 0.1 µM, first compound 0.1 µM
[9] = second compound 0.1 µM, first compound 0.316 µM
[10] = second compound 0.1 µM, first compound 1 µM
[11] = second compound 0.1 µM, first compound 3.16 µM
[12] = second compound 0.1 µM, first compound 10 µM
[13] = second compound 0.316 µM, first compound 0.0316 µM
[14] = second compound 0.316 µM, first compound 0.1 µM
[15] = second compound 0.316 µM, first compound 0.316 µM
[16] = second compound 0.316 µM, first compound 1 µM
[17] = second compound 0.316 µM, first compound 3.16 µM
[18] = second compound 0.316 µM, first compound 10 µM
[19] = second compound 1 µM, first compound 0.0316 µM
[20] = second compound 1 µM, first compound 0.1 µM
[21] = second compound 1 µM, first compound 0.316 µM
[22] = second compound 1 µM, first compound 1 µM
[23] = second compound 1 µM, first compound 3.16 µM
[24] = second compound 1 µM, first compound 10 µM
[25] = second compound 3.16 µM, first compound 0.0316 µM
[26] = second compound 3.16 µM, first compound 0.1 µM
[27] = second compound 3.16 µM, first compound 0.316 µM
[28] = second compound 3.16 µM, first compound 1 µM
[29] = second compound 3.16 µM, first compound 3.16 µM
[30] = second compound 3.16 µM, first compound 10 µM
[31] = second compound 10 µM, first compound 0.0316 µM
[32] = second compound 10 µM, first compound 0.1 µM
[33] = second compound 10 µM, first compound 0.316 µM
[34] = second compound 10 µM, first compound 1 µM
[35] = second compound 10 µM, first compound 3.16 µM
[36] = second compound 10 µM, first compound 10 µM
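Also: spheroids exposed to drugs for 7 days before viability reading.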
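For viability, T/C in this document: 100% = DMSO vehicle control viability.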

Q: What does the source list for `COc1cc(C2c3cc4c(cc3C(OC3OC5COC(C)OC5C(O)C3O)C3COC(=O)C23)OCO4)cc(OC)c1O` (stereo unspecified) + Cc1cnc(CNC(=O)c2c(=O)c3ccc(N4CCCN(C)CC4)nc3n3c2sc2ccccc23)cn1?
A: pIC50 (second compound 0.0316 µM): 5.57; pIC50 (second compound 0.1 µM): < 5.00; pIC50 (second compound 0.316 µM): 5.55; pIC50 (second compound 1 µM): 5.78; pIC50 (second compound 3.16 µM): 5.75; pIC50 (second compound 10 µM): > 7.50; viability, T/C [1]: 99.8%; viability, T/C [2]: 83.6%; viability, T/C [3]: 77.8%; viability, T/C [4]: 53.8%; viability, T/C [5]: 50.7%; viability, T/C [6]: 42.4%; viability, T/C [7]: 91.8%; viability, T/C [8]: 92%; viability, T/C [9]: 75.8%; viability, T/C [10]: 52%; viability, T/C [11]: 56.6%; viability, T/C [12]: 45.5%; viability, T/C [13]: 76.6%; viability, T/C [14]: 73.3%; viability, T/C [15]: 81.6%; viability, T/C [16]: 58%; viability, T/C [17]: 50.3%; viability, T/C [18]: 47.8%; viability, T/C [19]: 65.9%; viability, T/C [20]: 57.5%; viability, T/C [21]: 55.5%; viability, T/C [22]: 52.2%; viability, T/C [23]: 51.1%; viability, T/C [24]: 38.1%; viability, T/C [25]: 56.3%; viability, T/C [26]: 52.1%; viability, T/C [27]: 55%; viability, T/C [28]: 46.6%; viability, T/C [29]: 50.4%; viability, T/C [30]: 33.1%; viability, T/C [31]: 48.8%; viability, T/C [32]: 37.6%; viability, T/C [33]: 47.1%; viability, T/C [34]: 40.7%; viability, T/C [35]: 43.5%; viability, T/C [36]: 19.4%

Q: What does the source list for `O=c1[nH]cc(F)c(=O)[nH]1` + Cc1cnc(CNC(=O)c2c(=O)c3ccc(N4CCCN(C)CC4)nc3n3c2sc2ccccc23)cn1?
A: pIC50 (second compound 0.0316 µM): < 5.00; pIC50 (second compound 0.1 µM): < 5.00; pIC50 (second compound 0.316 µM): < 5.00; pIC50 (second compound 1 µM): < 5.00; pIC50 (second compound 3.16 µM): < 5.00; pIC50 (second compound 10 µM): > 7.50; viability, T/C [1]: 109%; viability, T/C [2]: 112%; viability, T/C [3]: 100%; viability, T/C [4]: 99.7%; viability, T/C [5]: 111%; viability, T/C [6]: 84.7%; viability, T/C [7]: 100%; viability, T/C [8]: 84.9%; viability, T/C [9]: 89.4%; viability, T/C [10]: 88.5%; viability, T/C [11]: 104%; viability, T/C [12]: 87.4%; viability, T/C [13]: 78.9%; viability, T/C [14]: 82.8%; viability, T/C [15]: 69.5%; viability, T/C [16]: 72.5%; viability, T/C [17]: 82.7%; viability, T/C [18]: 76.7%; viability, T/C [19]: 68.2%; viability, T/C [20]: 66%; viability, T/C [21]: 71.3%; viability, T/C [22]: 72.2%; viability, T/C [23]: 76%; viability, T/C [24]: 69.9%; viability, T/C [25]: 54.8%; viability, T/C [26]: 59.9%; viability, T/C [27]: 51.3%; viability, T/C [28]: 49.8%; viability, T/C [29]: 63.2%; viability, T/C [30]: 51.4%; viability, T/C [31]: 49%; viability, T/C [32]: 49.6%; viability, T/C [33]: 49.2%; viability, T/C [34]: 49.4%; viability, T/C [35]: 54.7%; viability, T/C [36]: 47.6%

Q: How did the pIC50 (second compound 0.0316 µM) turn out when `COc1cc(C2c3cc4c(cc3C(OC3OC5COC(C)OC5C(O)C3O)C3COC(=O)C23)OCO4)cc(OC)c1O` (stereo unspecified) + Cc1[nH]c2ccc(F)cc2c1-c1nc2c3cccnc3c3ncccc3c2[nH]1 was run?
A: Its pIC50 is 5.27.

Q: What about the pIC50 (second compound 0.1 µM) of the same molecule?
A: The pIC50 was < 5.00.

Q: What about the pIC50 (second compound 0.316 µM) of the same molecule?
A: The pIC50 was < 5.00.

Q: And the pIC50 (second compound 1 µM)?
A: The pIC50 was 5.27.

Q: And the pIC50 (second compound 3.16 µM)?
A: The pIC50 was 5.08.

Q: And the pIC50 (second compound 10 µM)?
A: Its pIC50 is 6.01.

Q: What about the viability, T/C [1] of the same molecule?
A: Its viability, T/C is 107%.

Q: And the viability, T/C [2]?
A: Its viability, T/C is 78.9%.

Q: What about the viability, T/C [3] of the same molecule?
A: Its viability, T/C is 78.4%.

Q: What about the viability, T/C [4] of the same molecule?
A: Its viability, T/C is 66.8%.

Q: What about the viability, T/C [5] of the same molecule?
A: The viability, T/C was 51.6%.

Q: And the viability, T/C [6]?
A: The viability, T/C was 45.8%.

Q: What about the viability, T/C [7] of the same molecule?
A: The viability, T/C was 93%.

Q: What about the viability, T/C [8] of the same molecule?
A: The viability, T/C was 86.8%.

Q: And the viability, T/C [9]?
A: The viability, T/C was 79.3%.

Q: What about the viability, T/C [10] of the same molecule?
A: Its viability, T/C is 66.3%.

Q: And the viability, T/C [11]?
A: The viability, T/C was 58.3%.

Q: And the viability, T/C [12]?
A: The viability, T/C was 53.3%.

Q: What about the viability, T/C [13] of the same molecule?
A: The viability, T/C was 93.4%.

Q: What about the viability, T/C [14] of the same molecule?
A: The viability, T/C was 104%.

Q: What about the viability, T/C [15] of the same molecule?
A: The viability, T/C was 87.3%.

Q: What about the viability, T/C [16] of the same molecule?
A: The viability, T/C was 54.1%.

Q: What about the viability, T/C [17] of the same molecule?
A: The viability, T/C was 57.9%.

Q: And the viability, T/C [18]?
A: The viability, T/C was 50.3%.

Q: What about the viability, T/C [19] of the same molecule?
A: The viability, T/C was 102%.

Q: And the viability, T/C [20]?
A: The viability, T/C was 85.2%.

Q: What about the viability, T/C [21] of the same molecule?
A: Its viability, T/C is 79.5%.

Q: And the viability, T/C [22]?
A: The viability, T/C was 60.9%.

Q: What about the viability, T/C [23] of the same molecule?
A: The viability, T/C was 55.7%.

Q: And the viability, T/C [24]?
A: Its viability, T/C is 44.8%.

Q: What about the viability, T/C [25] of the same molecule?
A: The viability, T/C was 92.8%.

Q: What about the viability, T/C [26] of the same molecule?
A: The viability, T/C was 82%.

Q: What about the viability, T/C [27] of the same molecule?
A: The viability, T/C was 79.3%.

Q: And the viability, T/C [28]?
A: The viability, T/C was 60.3%.

Q: What about the viability, T/C [29] of the same molecule?
A: Its viability, T/C is 63.6%.

Q: And the viability, T/C [30]?
A: Its viability, T/C is 46.4%.

Q: What about the viability, T/C [31] of the same molecule?
A: Its viability, T/C is 67.4%.

Q: And the viability, T/C [32]?
A: Its viability, T/C is 64.3%.

Q: And the viability, T/C [33]?
A: The viability, T/C was 65%.

Q: And the viability, T/C [34]?
A: Its viability, T/C is 49.2%.

Q: What about the viability, T/C [35] of the same molecule?
A: The viability, T/C was 43.9%.

Q: What about the viability, T/C [36] of the same molecule?
A: The viability, T/C was 39.5%.
